A short description of the series: recombinant barcode read abundance after kanamycin selection (control-corrected) (log10(CPM+1)); higher = more efficient recombination; sequences stand for … in AGTGCAGAGAAAATCGGCCAGTTTTCTCTGCCTGCAGTCCGCATGCCGT…AGATTTATGCAGCGGACTGCCTTTCTCCCAAAGTGATAAACCGGACAGTATCATGGACCGGTTTTCCCGGTAATCCGTATTTGCAAGGTTGGTTTCACT; site = the 11-nt target. The method, boiled down: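 For this pooled screen, each oligo contained a promoter, a target, a barcode and the J23119-driven first 104 bases of the bridge RNA. Gibson cloning placed it into a vector supplying the remaining 73 bp and a T7-inducible recombinase, and the pool was co-electroporated into E. coli with a donor plasmid. Recombination efficiency is derived from barcode counts per million at recombinant junctions after averaging and control correction, and is expressed on a log scale as log10(CPM+1), with selection on chloramphenicol/ampicillin/kanamycin plus 0.1 mM IPTG against a chloramphenicol/ampicillin LB agar control.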
With “TTACGTGCTTGGGTTCTAACCTGTTGCGG (site TTACGTGCTCC)”, the “recombinant barcode read abundance (log10)” value is 2.4. As to “TTAGAGCCTTGGGTTCTAACCTGTTGCCT (site TTAGAGACTAG)”, the “recombinant barcode read abundance (log10)” value was determined as 0.0939.

For “TTAGAGCCTTGGGTTCTAACCTGTTGCCT (site TTAGAGCCTAG)”, the “recombinant barcode read abundance (log10)” value is 2. Then “TTAGAGCCTTGGGTTCTAACCTGTTGCCT (site TTAGAGGCTAG)”, with 0.173; and “TTAGAGCCTTGGGTTCTAACCTGTTGCCT (site TTAGAGTCTAG)”, with 0.644; and “TTAGAGTCTTGGGTTCTAACCTGTTGCCT (site TTAGAGACTAG)”, with 0.103.

Take “TTAGAGTCTTGGGTTCTAACCTGTTGCCT (site TTAGAGCCTAG)”: the “recombinant barcode read abundance (log10)” value was 0.925. Consider “TTAGAGTCTTGGGTTCTAACCTGTTGCCT (site TTAGAGGCTAG)”, for which the “recombinant barcode read abundance (log10)” value was 0.126. Consider “TTAGAGTCTTGGGTTCTAACCTGTTGCCT (site TTAGAGTCTAG)”, for which the “recombinant barcode read abundance (log10)” value was 2.08.

With “TTAGCCTCTTGGGTTCTAACCTGTTGCCT (site TTAGCATCTAG)”, the “recombinant barcode read abundance (log10)” value was found to be 0.168. “TTAGCCTCTTGGGTTCTAACCTGTTGCCT (site TTAGCCTCTAG)”: the “recombinant barcode read abundance (log10)” value is 2.66.

Take “TTAGCCTCTTGGGTTCTAACCTGTTGCCT (site TTAGCGTCTAG)”: the “recombinant barcode read abundance (log10)” value was found to be 0.137. As to “TTAGCCTCTTGGGTTCTAACCTGTTGCCT (site TTAGCTTCTAG)”, the “recombinant barcode read abundance (log10)” value worked out at 0.00901. With “TTAGCGTCTTGGGTTCTAACCTGTTGCCT (site TTAGCATCTAG)”, the “recombinant barcode read abundance (log10)” value was 1.47.

As for “TTAGCGTCTTGGGTTCTAACCTGTTGCCT (site TTAGCCTCTAG)”, the “recombinant barcode read abundance (log10)” value is 0.0674.

Consider “TTAGCGTCTTGGGTTCTAACCTGTTGCCT (site TTAGCGTCTAG)”, for which the “recombinant barcode read abundance (log10)” value was 1.73. Next, “TTAGCGTCTTGGGTTCTAACCTGTTGCCT (site TTAGCTTCTAG)”: 0.129; “TTATACACTTGGGTTCTAACCTGTTGCTC (site GATAGGGCTAG)”: 0.0179; “TTATACACTTGGGTTCTAACCTGTTGCTC (site TTATACACTGA)”: 0.919. Then “TTATGATCTTGGGTTCTAACCTGTTGCCT (site TCATGAACTAG)”, with 0.0371; and “TTATGATCTTGGGTTCTAACCTGTTGCCT (site TTATGATCTAG)”, with 0.193; and “TTATGGGCTTGGGTTCTAACCTGTTGCCG (site TCCTGGGCTCG)”, with 0.114. Turning to “TTATGGGCTTGGGTTCTAACCTGTTGCCG (site TTATGGGCTCG)”, the “recombinant barcode read abundance (log10)” value came to 0.88. Then “TTCAAGACTTGGGTTCTAACCTGTTGCCT (site TTCAAGACTAG)”, with 0.681; and “TTCAAGACTTGGGTTCTAACCTGTTGCCT (site TTCAAGCCTAG)”, with 0.0955; and “TTCAAGACTTGGGTTCTAACCTGTTGCCT (site TTCAAGGCTAG)”, with 0. For the sequence “TTCAAGACTTGGGTTCTAACCTGTTGCCT (site TTCAAGTCTAG)”, the “recombinant barcode read abundance (log10)” value was 0.241. On to “TTCAAGCCTTGGGTTCTAACCTGTTGCGG (site TTCAAGCCTAC)”, for which the “recombinant barcode read abundance (log10)” value was 0.222. Then “TTCAAGCCTTGGGTTCTAACCTGTTGCGG (site TTCAAGCCTCC)”, with 1.15. Next, “TTCAAGGCTTGGGTTCTAACCTGTTGCCT (site TTCAAGACTAG)”: 0.0627; “TTCAAGGCTTGGGTTCTAACCTGTTGCCT (site TTCAAGCCTAG)”: 0.118. For the sequence “TTCAAGGCTTGGGTTCTAACCTGTTGCCT (site TTCAAGGCTAG)”, the “recombinant barcode read abundance (log10)” value turned out to be 0.17. As to “TTCAAGGCTTGGGTTCTAACCTGTTGCCT (site TTCAAGTCTAG)”, the “recombinant barcode read abundance (log10)” value was 0.461. Next, “TTCAAGTCTTGGGTTCTAACCTGTTGCGT (site TTCAACTCTAC)”: 0.0281. Next, “TTCAAGTCTTGGGTTCTAACCTGTTGCGT (site TTCAAGTCTAC)”: 1.33. Then “TTCAATTCTTGGGTTCTAACCTGTTGCTT (site TATAATTCTAA)”, with 0.00963. “TTCAATTCTTGGGTTCTAACCTGTTGCTT (site TTCAATTCTAA)”: the “recombinant barcode read abundance (log10)” value stood at 0.0521. Then “TTCCCTACTTGGGTTCTAACCTGTTGCCT (site CTCCCAACTAG)”, with 0.102; and “TTCCCTACTTGGGTTCTAACCTGTTGCCT (site TTCCCTACTAG)”, with 0.452.

As for “TTCCGAGCTTGGGTTCTAACCTGTTGCAG (site CCTACGCCTTG)”, the “recombinant barcode read abundance (log10)” value is 0.216. Take “TTCCGAGCTTGGGTTCTAACCTGTTGCAG (site TTCCGAGCTCT)”: the “recombinant barcode read abundance (log10)” value is 0.873. “TTCGGAGCTTGGGTTCTAACCTGTTGCTG (site TTCGGAGCTCA)”: the “recombinant barcode read abundance (log10)” value was 1.56. Next, “TTCGGAGCTTGGGTTCTAACCTGTTGCTG (site TTGGGAGCTCA)”: 0.0871; “TTCGGCTCTTGGGTTCTAACCTGTTGCTA (site CGATCACCTAG)”: 0.0491; “TTCGGCTCTTGGGTTCTAACCTGTTGCTA (site TTCGGCTCTTA)”: 0.605.

As for “TTCGTAGCTTGGGTTCTAACCTGTTGCGT (site TTCGTAGCTAC)”, the “recombinant barcode read abundance (log10)” value is 1.29. Next, “TTCGTAGCTTGGGTTCTAACCTGTTGCGT (site TTCGTAGCTAG)”: 0.285.

Regarding “TTCTACACTTGGGTTCTAACCTGTTGCAT (site GAACCTTCTCC)”, the “recombinant barcode read abundance (log10)” value amounted to 0.107. With “TTCTACACTTGGGTTCTAACCTGTTGCAT (site TTCTACACTAT)”, the “recombinant barcode read abundance (log10)” value was 0.298. Consider “TTCTACTCTTGGGTTCTAACCTGTTGCCT (site CTCTACTCTAG)”, for which the “recombinant barcode read abundance (log10)” value is 0.75. Next, “TTCTACTCTTGGGTTCTAACCTGTTGCCT (site TTCTACTCTAG)”: 0.405; “TTCTCTCCTTGGGTTCTAACCTGTTGCCT (site TTCTATCCTAG)”: 0.0831; “TTCTCTCCTTGGGTTCTAACCTGTTGCCT (site TTCTCTCCTAG)”: 0.206. Then “TTCTCTCCTTGGGTTCTAACCTGTTGCCT (site TTCTGTCCTAG)”, with 0.00855; and “TTCTCTCCTTGGGTTCTAACCTGTTGCCT (site TTCTTTCCTAG)”, with 0.169. “TTCTCTTCTTGGGTTCTAACCTGTTGCCT (site TTCTCTTCTAG)”: the “recombinant barcode read abundance (log10)” value is 0.0495. Consider “TTCTCTTCTTGGGTTCTAACCTGTTGCCT (site TTCTGTTCTAG)”, for which the “recombinant barcode read abundance (log10)” value came out at 0.103.

Regarding “TTCTGAACTTGGGTTCTAACCTGTTGCCT (site GTCTCAACTAG)”, the “recombinant barcode read abundance (log10)” value worked out at 0.109.

“TTCTGAACTTGGGTTCTAACCTGTTGCCT (site TTCTGAACTAG)”: the “recombinant barcode read abundance (log10)” value stood at 0.126. On to “TTCTTACCTTGGGTTCTAACCTGTTGCCT (site TACTTACCTAG)”, for which the “recombinant barcode read abundance (log10)” value was found to be 0.0709. For “TTCTTACCTTGGGTTCTAACCTGTTGCCT (site TTCTTACCTAG)”, the “recombinant barcode read abundance (log10)” value was determined as 0.654. Then “TTCTTGCCTTGGGTTCTAACCTGTTGCCT (site TTATTGTCTAG)”, with 0.111; and “TTCTTGCCTTGGGTTCTAACCTGTTGCCT (site TTCTTGCCTAG)”, with 0.665; and “TTCTTTCCTTGGGTTCTAACCTGTTGCCT (site TTCTATCCTAG)”, with 0.0663. Next, “TTCTTTCCTTGGGTTCTAACCTGTTGCCT (site TTCTCTCCTAG)”: 0.0684; “TTCTTTCCTTGGGTTCTAACCTGTTGCCT (site TTCTGTCCTAG)”: 0.0839; “TTCTTTCCTTGGGTTCTAACCTGTTGCCT (site TTCTTTCCTAG)”: 0.11. With “TTGACGACTTGGGTTCTAACCTGTTGCCA (site TTGACGACTTG)”, the “recombinant barcode read abundance (log10)” value is 0.36. Then “TTGACGACTTGGGTTCTAACCTGTTGCCA (site TTGCCGACTTG)”, with 0.217. For the sequence “TTGACGACTTGGGTTCTAACCTGTTGCCA (site TTGGCGACTTG)”, the “recombinant barcode read abundance (log10)” value worked out at 0.116. Then “TTGACGACTTGGGTTCTAACCTGTTGCCA (site TTGTCGACTTG)”, with 0.0686; and “TTGACGGCTTGGGTTCTAACCTGTTGCCT (site CCATTCCCTTA)”, with 0.041; and “TTGACGGCTTGGGTTCTAACCTGTTGCCT (site TTGACGGCTAG)”, with 0.165. For “TTGAGGACTTGGGTTCTAACCTGTTGCCT (site ATGAGGACTAG)”, the “recombinant barcode read abundance (log10)” value was 0.0377. Next, “TTGAGGACTTGGGTTCTAACCTGTTGCCT (site CTGAGGACTAG)”: 0.146; “TTGAGGACTTGGGTTCTAACCTGTTGCCT (site GTGAGGACTAG)”: 0. Then “TTGAGGACTTGGGTTCTAACCTGTTGCCT (site TTGAGGACTAG)”, with 0.606.

These data come from the supplement of paper PMC11208160.
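Note: IS621 recombinase and bridge RNA in Escherichia coli cells.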
